{"source": "ChEMBL document CHEMBL5058641", "about": "“Data for DCP probe TP-050” (2022)", "key": {"[1]": {"molecular_target": "Alpha-1A adrenergic receptor (Homo sapiens, UniProt P35348)", "sequence (P35348 whole entry)": "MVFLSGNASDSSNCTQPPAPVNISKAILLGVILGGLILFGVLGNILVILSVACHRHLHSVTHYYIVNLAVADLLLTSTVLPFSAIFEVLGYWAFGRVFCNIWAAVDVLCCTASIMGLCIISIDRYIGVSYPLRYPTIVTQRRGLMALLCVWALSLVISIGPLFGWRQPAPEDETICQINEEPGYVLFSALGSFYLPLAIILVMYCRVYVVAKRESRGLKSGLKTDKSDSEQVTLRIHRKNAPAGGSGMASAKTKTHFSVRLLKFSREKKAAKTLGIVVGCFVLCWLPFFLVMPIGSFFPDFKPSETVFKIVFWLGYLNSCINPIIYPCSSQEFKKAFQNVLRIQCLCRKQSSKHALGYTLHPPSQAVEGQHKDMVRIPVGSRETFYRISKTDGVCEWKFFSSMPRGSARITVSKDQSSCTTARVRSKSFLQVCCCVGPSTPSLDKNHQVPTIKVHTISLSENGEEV", "assay": "ADRA1A Eurofins SafetyScan (Receptor)"}, "Acetylcholinesterase": {"molecular_target": "Acetylcholinesterase (Homo sapiens, UniProt P22303)", "assay": "AChE Eurofins SafetyScreen (Other)", "design": "species or system Inhibitor"}, "Adenosine receptor A2a": {"molecular_target": "Adenosine receptor A2a (Homo sapiens, UniProt P29274)", "assay": "ADORA2A Eurofins SafetyScan (Receptor)"}, "[2]": {"molecular_target": "cGMP-inhibited 3',5'-cyclic phosphodiesterase 3A (Homo sapiens, UniProt Q14432)", "assay": "PDE3A Eurofins SafetyScreen (Other)", "design": "species or system Inhibitor"}, "[3]": {"molecular_target": "Sodium-dependent noradrenaline transporter (Homo sapiens, UniProt P23975)", "details": "Compound concentration 10.0 uM; call rule not given here"}, "[4]": {"molecular_target": "Glutamate receptor ionotropic, NMDA 1 (Homo sapiens, UniProt Q05586+Q13224)", "assay": "NMDAR (1A/2B) Eurofins SafetyScreen (Other)", "design": "species or system Blocker"}, "[5]": {"molecular_target": "5-hydroxytryptamine receptor 1B (Homo sapiens, UniProt P28222)", "details": "Compound concentration 10.0 uM"}, "Rattus norvegicus": {"species": "Rattus norvegicus", "details": "Compound concentration 10.0 uM"}, "Mu-type opioid receptor": {"molecular_target": "Mu-type opioid receptor (Homo sapiens, UniProt P35372)", "details": "Compound concentration 10.0 uM"}, "Cannabinoid receptor 2": {"molecular_target": "Cannabinoid receptor 2 (Homo sapiens, UniProt P34972)", "assay": "CNR2 Eurofins SafetyScan (Receptor)"}, "[6]": {"molecular_target": "T1, Kappa-type opioid receptor (Homo sapiens, UniProt P41145)", "T1 sequence (P41145 whole entry)": "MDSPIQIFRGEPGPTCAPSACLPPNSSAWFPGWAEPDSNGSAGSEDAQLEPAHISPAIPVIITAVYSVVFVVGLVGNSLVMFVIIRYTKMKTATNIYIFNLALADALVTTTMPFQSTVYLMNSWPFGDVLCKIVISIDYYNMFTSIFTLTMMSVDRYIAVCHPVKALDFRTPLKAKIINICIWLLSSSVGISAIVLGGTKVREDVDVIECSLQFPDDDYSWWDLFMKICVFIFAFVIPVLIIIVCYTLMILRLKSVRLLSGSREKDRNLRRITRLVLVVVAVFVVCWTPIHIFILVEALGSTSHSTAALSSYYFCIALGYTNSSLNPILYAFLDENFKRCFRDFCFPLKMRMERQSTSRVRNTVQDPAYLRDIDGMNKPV", "assay": "OPRK1 Eurofins SafetyScan (Receptor)"}, "[7]": {"molecular_target": "D(3) dopamine receptor (Homo sapiens) (UniProt P35462)", "details": "Compound concentration 10.0 uM"}, "[8]": {"molecular_target": "Beta-2 adrenergic receptor (Homo sapiens, UniProt P07550)", "assay": "ADRB2 Eurofins SafetyScan (Receptor)"}, "[9]": {"molecular_target": "T2, Sodium-dependent dopamine transporter (Homo sapiens, UniProt Q01959)", "T2 sequence (Q01959 whole entry)": "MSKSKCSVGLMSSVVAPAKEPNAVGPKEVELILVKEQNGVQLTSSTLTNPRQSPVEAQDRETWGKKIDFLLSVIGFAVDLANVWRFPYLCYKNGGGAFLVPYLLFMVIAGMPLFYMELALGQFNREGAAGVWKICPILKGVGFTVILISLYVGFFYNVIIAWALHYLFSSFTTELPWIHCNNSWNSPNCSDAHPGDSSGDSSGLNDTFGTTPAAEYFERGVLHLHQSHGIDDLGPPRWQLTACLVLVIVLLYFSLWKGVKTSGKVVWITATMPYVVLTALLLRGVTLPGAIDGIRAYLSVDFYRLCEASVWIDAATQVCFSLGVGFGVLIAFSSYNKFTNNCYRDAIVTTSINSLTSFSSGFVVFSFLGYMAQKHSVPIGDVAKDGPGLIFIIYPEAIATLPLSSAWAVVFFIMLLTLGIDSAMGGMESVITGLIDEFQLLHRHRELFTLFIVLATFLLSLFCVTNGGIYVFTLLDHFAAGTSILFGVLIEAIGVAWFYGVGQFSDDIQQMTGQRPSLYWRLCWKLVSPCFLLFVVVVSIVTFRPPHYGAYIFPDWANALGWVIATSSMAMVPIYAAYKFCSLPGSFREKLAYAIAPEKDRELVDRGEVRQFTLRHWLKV", "assay": "GPCRScan assay: inhibition of DAT", "design": "radioligand conc. used [nm] 3.6 – 16.0, parental cells stable HEK"}, "[10]": {"molecular_target": "Muscarinic acetylcholine receptor M2 (Homo sapiens) (UniProt P08172)", "details": "Compound concentration 10.0 uM"}, "[11]": {"molecular_target": "5-hydroxytryptamine receptor 1A (Homo sapiens) (UniProt P08908)", "details": "Compound concentration 10.0 uM"}, "[12]": {"molecular_target": "5-hydroxytryptamine receptor 5A (Homo sapiens) (UniProt P47898)", "details": "Compound concentration 10.0 uM"}, "Histamine H1 receptor": {"molecular_target": "Histamine H1 receptor (Homo sapiens, UniProt P35367)", "details": "Compound concentration 10.0 uM"}, "Cannabinoid receptor 1": {"molecular_target": "Cannabinoid receptor 1 (Homo sapiens, UniProt P21554)", "assay": "CNR1 Eurofins SafetyScan (Receptor)"}, "[13]": {"molecular_target": "D(4) dopamine receptor (Homo sapiens) (UniProt P21917)", "details": "Compound concentration 10.0 uM"}, "[14]": {"molecular_target": "Glutamate receptor ionotropic, NMDA 2B (Homo sapiens, UniProt Q05586+Q13224)", "assay": "GluN2B-containing NMDA receptor (Ca2+ influx) assay (EC50)"}, "[15]": {"molecular_target": "5-hydroxytryptamine receptor 3A (Homo sapiens, UniProt P46098)", "assay": "HTR3A Eurofins SafetyScreen (Other)", "design": "species or system Blocker"}, "[16]": {"molecular_target": "5-hydroxytryptamine receptor 1A (Homo sapiens, UniProt P08908)", "assay": "HTR1A Eurofins SafetyScan (Receptor)"}, "[17]": {"molecular_target": "5-hydroxytryptamine receptor 1E (Homo sapiens) (UniProt P28566)", "details": "Compound concentration 10.0 uM"}, "[18]": {"molecular_target": "T1, Kappa-type opioid receptor", "details": "Compound concentration 10.0 uM"}, "[19]": {"molecular_target": "Rho-associated protein kinase 1 (Homo sapiens, UniProt Q13464)", "assay": "ROCK1 Eurofins SafetyScreen (Other)", "design": "species or system Inhibitor"}, "[20]": {"molecular_target": "Sodium channel protein type 5 subunit alpha (Homo sapiens, UniProt Q14524)", "assay": "NAV1.5 Eurofins SafetyScreen (Other)", "design": "species or system Blocker"}, "[21]": {"molecular_target": "5-hydroxytryptamine receptor 2C (Homo sapiens) (UniProt P28335)", "details": "Compound concentration 10.0 uM"}, "D(2) dopamine receptor [22]": {"molecular_target": "T3, D(2) dopamine receptor (Homo sapiens, UniProt P14416)", "T3 sequence (P14416 whole entry)": "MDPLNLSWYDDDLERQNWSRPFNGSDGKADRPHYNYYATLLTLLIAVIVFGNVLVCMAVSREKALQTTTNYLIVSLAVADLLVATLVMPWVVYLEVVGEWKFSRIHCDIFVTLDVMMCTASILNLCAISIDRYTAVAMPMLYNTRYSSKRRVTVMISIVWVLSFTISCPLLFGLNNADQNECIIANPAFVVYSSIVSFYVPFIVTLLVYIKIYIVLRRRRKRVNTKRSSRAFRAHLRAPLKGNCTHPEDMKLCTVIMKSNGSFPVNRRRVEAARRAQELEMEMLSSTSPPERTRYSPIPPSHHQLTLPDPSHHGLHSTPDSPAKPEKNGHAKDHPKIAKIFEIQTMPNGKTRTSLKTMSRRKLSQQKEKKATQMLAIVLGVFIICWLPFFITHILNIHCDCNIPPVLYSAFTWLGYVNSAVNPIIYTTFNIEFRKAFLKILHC", "details": "Compound concentration 10.0 uM"}, "[23]": {"molecular_target": "Alpha-1B adrenergic receptor (Homo sapiens) (UniProt P35368)", "details": "Compound concentration 10.0 uM"}, "[24]": {"molecular_target": "Potassium voltage-gated channel subfamily KQT member 1 (Homo sapiens, UniProt P51787)", "assay": "KvLQT1/minK Eurofins SafetyScreen (Other)", "design": "species or system Blocker"}, "[25]": {"molecular_target": "5-hydroxytryptamine receptor 1D (Homo sapiens, UniProt P28221)", "details": "Compound concentration 10.0 uM"}, "[26]": {"molecular_target": "Prostaglandin G/H synthase 2 (Homo sapiens, UniProt P35354)", "assay": "COX2 Eurofins SafetyScreen (Other)", "design": "species or system Inhibitor"}, "[27]": {"molecular_target": "T4, 5-hydroxytryptamine receptor 2A (Homo sapiens, UniProt P28223)", "T4 sequence (P28223 whole entry)": "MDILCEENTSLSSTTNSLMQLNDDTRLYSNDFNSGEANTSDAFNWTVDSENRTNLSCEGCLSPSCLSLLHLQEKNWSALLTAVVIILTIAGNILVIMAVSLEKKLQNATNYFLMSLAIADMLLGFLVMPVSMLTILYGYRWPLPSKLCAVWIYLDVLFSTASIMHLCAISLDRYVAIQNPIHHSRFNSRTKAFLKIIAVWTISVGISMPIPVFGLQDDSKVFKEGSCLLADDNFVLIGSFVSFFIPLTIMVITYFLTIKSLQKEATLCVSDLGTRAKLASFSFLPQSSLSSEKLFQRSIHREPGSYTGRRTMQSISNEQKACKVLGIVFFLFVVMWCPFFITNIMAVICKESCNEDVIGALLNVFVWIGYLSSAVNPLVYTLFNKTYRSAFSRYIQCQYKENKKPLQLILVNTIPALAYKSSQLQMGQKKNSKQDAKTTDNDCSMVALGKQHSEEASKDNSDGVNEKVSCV", "assay": "HTR2A Eurofins SafetyScan (Receptor)"}, "[28]": {"molecular_target": "Beta-1 adrenergic receptor (Homo sapiens, UniProt P08588)", "sequence (P08588 whole entry)": "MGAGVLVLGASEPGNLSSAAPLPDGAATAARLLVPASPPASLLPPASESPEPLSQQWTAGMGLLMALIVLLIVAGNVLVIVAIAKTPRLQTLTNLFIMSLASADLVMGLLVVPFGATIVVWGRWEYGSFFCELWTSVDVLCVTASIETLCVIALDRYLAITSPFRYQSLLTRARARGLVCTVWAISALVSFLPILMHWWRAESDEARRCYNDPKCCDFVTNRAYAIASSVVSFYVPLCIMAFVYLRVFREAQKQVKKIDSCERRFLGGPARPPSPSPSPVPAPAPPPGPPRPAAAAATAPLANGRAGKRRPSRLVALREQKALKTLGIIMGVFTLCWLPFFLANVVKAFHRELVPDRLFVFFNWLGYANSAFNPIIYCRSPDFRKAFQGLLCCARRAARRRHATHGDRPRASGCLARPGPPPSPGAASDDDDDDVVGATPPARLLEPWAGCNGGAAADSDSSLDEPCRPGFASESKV", "assay": "ADRB1 Eurofins SafetyScan (Receptor)"}, "Vasopressin V1a receptor": {"molecular_target": "Vasopressin V1a receptor (Homo sapiens, UniProt P37288)", "sequence (P37288 whole entry)": "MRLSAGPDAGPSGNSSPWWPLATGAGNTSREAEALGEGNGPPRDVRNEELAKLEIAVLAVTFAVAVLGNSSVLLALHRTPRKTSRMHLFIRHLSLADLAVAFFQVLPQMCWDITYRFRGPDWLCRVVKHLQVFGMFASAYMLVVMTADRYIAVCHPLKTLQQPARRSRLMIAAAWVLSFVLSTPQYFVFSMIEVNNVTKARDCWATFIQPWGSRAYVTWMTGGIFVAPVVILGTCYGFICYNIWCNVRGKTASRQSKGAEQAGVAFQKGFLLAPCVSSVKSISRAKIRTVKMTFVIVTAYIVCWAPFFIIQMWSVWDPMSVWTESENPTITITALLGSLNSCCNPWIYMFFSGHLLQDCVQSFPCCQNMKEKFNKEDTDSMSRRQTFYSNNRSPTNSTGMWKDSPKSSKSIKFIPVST", "assay": "AVPR1A Eurofins SafetyScan (Receptor)"}, "[29]": {"molecular_target": "Alpha-1D adrenergic receptor (Homo sapiens) (UniProt P25100)", "details": "Compound concentration 10.0 uM"}, "Androgen receptor": {"molecular_target": "Androgen receptor (Homo sapiens, UniProt P10275)", "sequence (P10275 whole entry)": "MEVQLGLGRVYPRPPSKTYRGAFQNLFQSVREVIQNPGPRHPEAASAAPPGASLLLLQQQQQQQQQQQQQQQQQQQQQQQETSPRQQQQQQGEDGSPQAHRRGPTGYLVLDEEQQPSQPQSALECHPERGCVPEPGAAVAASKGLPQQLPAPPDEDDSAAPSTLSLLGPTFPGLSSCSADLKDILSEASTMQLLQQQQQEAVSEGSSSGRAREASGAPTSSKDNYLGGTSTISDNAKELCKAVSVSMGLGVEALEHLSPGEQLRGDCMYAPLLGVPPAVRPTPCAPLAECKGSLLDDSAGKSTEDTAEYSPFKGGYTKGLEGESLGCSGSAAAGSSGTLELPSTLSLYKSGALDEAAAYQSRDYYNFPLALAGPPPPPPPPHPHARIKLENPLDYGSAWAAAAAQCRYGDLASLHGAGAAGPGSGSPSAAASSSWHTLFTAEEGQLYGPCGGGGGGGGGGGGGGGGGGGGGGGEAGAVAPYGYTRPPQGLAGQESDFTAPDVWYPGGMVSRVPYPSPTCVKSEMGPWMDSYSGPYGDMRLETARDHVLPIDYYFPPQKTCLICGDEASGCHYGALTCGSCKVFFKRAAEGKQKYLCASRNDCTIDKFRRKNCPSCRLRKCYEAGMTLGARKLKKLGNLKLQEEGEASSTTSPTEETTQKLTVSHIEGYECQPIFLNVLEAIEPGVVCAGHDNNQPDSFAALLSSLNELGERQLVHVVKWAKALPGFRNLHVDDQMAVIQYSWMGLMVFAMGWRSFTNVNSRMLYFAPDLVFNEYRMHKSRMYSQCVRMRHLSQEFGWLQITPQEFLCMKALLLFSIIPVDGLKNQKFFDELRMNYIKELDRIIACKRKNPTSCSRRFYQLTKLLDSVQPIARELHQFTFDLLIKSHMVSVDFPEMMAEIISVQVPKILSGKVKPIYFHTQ", "assay": "AR Eurofins SafetyScan (Receptor)"}, "[30]": {"molecular_target": "Muscarinic acetylcholine receptor M3 (Homo sapiens, UniProt P20309)", "sequence (P20309 whole entry)": "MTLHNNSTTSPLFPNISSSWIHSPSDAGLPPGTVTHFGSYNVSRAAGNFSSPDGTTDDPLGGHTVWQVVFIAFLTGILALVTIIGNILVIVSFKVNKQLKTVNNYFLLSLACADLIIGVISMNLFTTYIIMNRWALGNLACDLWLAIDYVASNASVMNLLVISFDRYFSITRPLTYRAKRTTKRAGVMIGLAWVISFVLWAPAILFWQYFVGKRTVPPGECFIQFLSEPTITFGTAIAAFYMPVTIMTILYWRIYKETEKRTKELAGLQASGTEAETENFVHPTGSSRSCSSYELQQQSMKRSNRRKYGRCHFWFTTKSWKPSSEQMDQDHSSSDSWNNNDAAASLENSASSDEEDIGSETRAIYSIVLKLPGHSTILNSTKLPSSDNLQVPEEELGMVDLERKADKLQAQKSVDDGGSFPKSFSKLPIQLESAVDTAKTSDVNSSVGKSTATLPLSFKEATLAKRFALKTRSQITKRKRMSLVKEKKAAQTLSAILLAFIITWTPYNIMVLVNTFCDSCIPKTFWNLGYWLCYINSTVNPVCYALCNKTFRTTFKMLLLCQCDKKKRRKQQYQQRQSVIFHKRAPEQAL", "assay": "CHRM3 Eurofins SafetyScan (Receptor)"}, "Endothelin-1 receptor": {"molecular_target": "Endothelin-1 receptor (Homo sapiens, UniProt P25101)", "assay": "EDNRA Eurofins SafetyScan (Receptor)"}, "[31]": {"molecular_target": "T2, Sodium-dependent dopamine transporter", "assay": "DAT Eurofins SafetyScreen (Other)", "design": "species or system Blocker"}, "D(2) dopamine receptor [32]": {"molecular_target": "T3, D(2) dopamine receptor", "assay": "DRD2S Eurofins SafetyScan (Receptor)"}, "[33]": {"molecular_target": "Glutamate receptor ionotropic, NMDA 2D (Homo sapiens, UniProt O15399+Q05586)", "assay": "GluN2D-containing NMDA receptor (Ca2+ influx) assay (EC50)"}, "D(1A) dopamine receptor": {"molecular_target": "D(1A) dopamine receptor (Homo sapiens, UniProt P21728)", "details": "Compound concentration 10.0 uM"}, "[34]": {"molecular_target": "T4, 5-hydroxytryptamine receptor 2A", "details": "Compound concentration 10.0 uM"}, "[35]": {"molecular_target": "Amine oxidase [flavin-containing] A (Homo sapiens, UniProt P21397)", "assay": "MAOA Eurofins SafetyScreen (Other)", "design": "species or system Inhibitor"}}, "note": "pEC50, pIC50, pKi: −log10 of the molar value."}
{"smiles": "Cc1cn([C@H](C)CC#N)c(=O)c2cc(Cn3nc(C(F)F)cc3Cl)nn12", "values": [{"measurement": "pEC50", "setting": "[1]", "value": "< 5.00"}, {"measurement": "pIC50", "setting": "[1]", "value": "< 5.00"}, {"measurement": "pIC50", "setting": "Acetylcholinesterase", "value": "< 5.00"}, {"measurement": "pEC50", "setting": "Adenosine receptor A2a", "value": "< 5.00"}, {"measurement": "pIC50", "setting": "Adenosine receptor A2a", "value": "< 5.00"}, {"measurement": "pIC50", "setting": "[2]", "value": 5.10}, {"measurement": "inhibition", "setting": "[3]", "value": -4, "unit": "%"}, {"measurement": "pIC50", "setting": "[4]", "value": "< 5.00"}, {"measurement": "inhibition", "setting": "[5]", "value": 21.7, "unit": "%"}, {"measurement": "inhibition", "setting": "Rattus norvegicus", "value": 83.2, "unit": "%"}, {"measurement": "inhibition", "setting": "Mu-type opioid receptor", "value": 0.85, "unit": "%"}, {"measurement": "pEC50", "setting": "Cannabinoid receptor 2", "value": "< 5.00"}, {"measurement": "pIC50", "setting": "Cannabinoid receptor 2", "value": "< 5.00"}, {"measurement": "pEC50", "setting": "[6]", "value": "< 5.00"}, {"measurement": "pIC50", "setting": "[6]", "value": "< 5.00"}, {"measurement": "inhibition", "setting": "[7]", "value": 33, "unit": "%"}, {"measurement": "pEC50", "setting": "[8]", "value": "< 5.00"}, {"measurement": "pIC50", "setting": "[8]", "value": "< 5.00"}, {"measurement": "pKi", "setting": "[9]; read-out: Ki", "value": 5.02}, {"measurement": "Ki", "setting": "[9]; read-out: pKi (converted)", "value": 9.55, "unit": "µM"}, {"measurement": "inhibition", "setting": "[10]", "value": 4.32, "unit": "%"}, {"measurement": "inhibition", "setting": "[11]", "value": -5.4, "unit": "%"}, {"measurement": "inhibition", "setting": "[12]", "value": 7.54, "unit": "%"}, {"measurement": "inhibition", "setting": "Histamine H1 receptor", "value": 31.7, "unit": "%"}, {"measurement": "pEC50", "setting": "Cannabinoid receptor 1", "value": "< 5.00"}, {"measurement": "pIC50", "setting": "Cannabinoid receptor 1", "value": "< 5.00"}, {"measurement": "inhibition", "setting": "[13]", "value": 48.5, "unit": "%"}, {"measurement": "EC50", "setting": "[14]", "value": "> 30 µM (not active)"}, {"measurement": "pIC50", "setting": "[15]", "value": "< 5.00"}, {"measurement": "pEC50", "setting": "[16]", "value": "< 5.00"}, {"measurement": "pIC50", "setting": "[16]", "value": "< 5.00"}, {"measurement": "inhibition", "setting": "[17]", "value": 6.65, "unit": "%"}, {"measurement": "inhibition", "setting": "[18]", "value": 2.27, "unit": "%"}, {"measurement": "pIC50", "setting": "[19]", "value": "< 5.00"}, {"measurement": "pIC50", "setting": "[20]", "value": "< 5.00"}, {"measurement": "inhibition", "setting": "[21]", "value": 13.1, "unit": "%"}, {"measurement": "inhibition", "setting": "D(2) dopamine receptor [22]", "value": 9.18, "unit": "%"}, {"measurement": "inhibition", "setting": "[23]", "value": -6.73, "unit": "%"}, {"measurement": "pIC50", "setting": "[24]", "value": "< 5.00"}, {"measurement": "inhibition", "setting": "[25]", "value": 90.8, "unit": "%"}, {"measurement": "pIC50", "setting": "[26]", "value": "< 5.00"}, {"measurement": "pEC50", "setting": "[27]", "value": "< 5.00"}, {"measurement": "pIC50", "setting": "[27]", "value": "< 5.00"}, {"measurement": "pEC50", "setting": "[28]", "value": "< 5.00"}, {"measurement": "pIC50", "setting": "[28]", "value": "< 5.00"}, {"measurement": "pEC50", "setting": "Vasopressin V1a receptor", "value": "< 5.00"}, {"measurement": "pIC50", "setting": "Vasopressin V1a receptor", "value": "< 5.00"}, {"measurement": "inhibition", "setting": "[29]", "value": 10.6, "unit": "%"}, {"measurement": "pEC50", "setting": "Androgen receptor", "value": "< 5.00"}, {"measurement": "pIC50", "setting": "Androgen receptor", "value": "< 5.00"}, {"measurement": "pEC50", "setting": "[30]", "value": "< 5.00"}, {"measurement": "pIC50", "setting": "[30]", "value": "< 5.00"}, {"measurement": "pEC50", "setting": "Endothelin-1 receptor", "value": "< 5.00"}, {"measurement": "pIC50", "setting": "Endothelin-1 receptor", "value": "< 5.00"}, {"measurement": "pIC50", "setting": "[31]", "value": "< 5.00"}, {"measurement": "pEC50", "setting": "D(2) dopamine receptor [32]", "value": "< 5.00"}, {"measurement": "pIC50", "setting": "D(2) dopamine receptor [32]", "value": "< 5.00"}, {"measurement": "EC50", "setting": "[33]", "value": "> 9.6 µM (not active)"}, {"measurement": "inhibition", "setting": "D(1A) dopamine receptor", "value": 1.34, "unit": "%"}, {"measurement": "inhibition", "setting": "[34]", "value": -5.37, "unit": "%"}, {"measurement": "pIC50", "setting": "[35]", "value": "< 5.00"}]}
